The text below walks through data of patent EP1542672B1, “R-BAMBUTEROL, ITS PREPARATION AND THERAPEUTIC USES” (priority 2002, dated 2004).

The conditions of series [1]: bronchospasmolytic activity upon oral administration; cited from earlier work.
In series [2] the test system is Rats (Sprague Dawley). The series can be described thus: Cardiovascular effects in anesthetized rats (HR, MBP, Max dp/dt). The format is in vivo. The note with it: 30 mg/kg intravenously. The source says:
Test method: Rats (Sprague Dawley, 250-300g) were randomized into two groups (n=6, equal sexes). After anesthesia, plastic tubing was introduced into a carotid artery of each animal and connected to pressure transducers to record mean artery pressure (MBP) and heart rate (HR). Another tube was introduced into the left ventricular chamber via the another carotid artery and connected to a pressure transducer. Left ventricular systolic pressure (LVSP) and the first order of differential of LVSP (dp/dt) as an index for inotropic effects were recorded. R-Bambuterol and racemic bambuterol hydrochloride were dissolved in saline and administrated intravenously at 30 mg/kg to each animal. The HR, MBP and Max dp/dt were measured before treatment (control) and after the treatments when the maximum response occurred, and 20 min after treatment as indication of recovery.

For series [3], the system named is hyperlipidemia mice. The series can be described thus: Lipid lowering effects in Tyloxapol-induced hyperlipidemia mice. The format is in vivo, Kunming strain. The note with it: plasma; 10 mg/kg oral once a day for four days; Tyloxapol 400 mg/kg i.p.; blood 24 hours after Tyloxapol. As for the experimental part:
Test method: Male and […] mice, Kunming strain, 35 each, weight 18-22 grams, were used. Food and water were available ad libitum. The animals were randomized into 7 groups (n=10). Groups of animals were administered orally, via a stomach tube, vehicle (distilled water, two groups), R-bambuterol hydrochloride (10 mg/kg and 5 mg/kg), racemic bambuterol hydrochloride (10 mg/kg and 5 mg/kg) and simvastatin (10 mg/kg) once a day for four days. With the exception of one vehicle- treated group (as control), Tyloxapol (400 mg/kg, Sigma Chemical Co.) was injected into the peritoneal cavity of the mice of all groups immediately after the last treatment on the fourth day in order to induce hyperlipidemia. All the animals were fasted overnight prior to the injection of Tyloxapol. Blood samples were collected by cardiac puncture 24 hours after the injection of Tyloxapol. The blood samples were processed to plasma, and concentration of triglycerides (TG), cholesterol (CHO), high density lipoprotein (HDL), low density lipoprotein (LDL) and very low density lipoprotein (VLDL) were measured with an auto-blood analyzer (Olympic, Japan).

Setting [4] is: 20 min after treatment (recovery).
Setting [5] is: change from pre-treatment control at maximum response.

As to `CN(C)C(=O)Oc1cc(OC(=O)N(C)C)cc(C(O)CNC(C)(C)C)c1` (racemic) [bambuterol], the duration of activity result in series [1] is “more than 12 hours”. Also, in series [2] (setting [4]), the “HR, 20min after Δ” value is 40±9 Beat/min; the “MBP, 20min after Δ” value is reported as 1.1±0.4 Kpa; the “MBP, 20min after Δ, % of control” value came out at 8.3%; the “Maxdp/dt, 20min after Δ” value is recorded as 13±3.8 Kpa/sec. Moreover, the “Maxdp/dt, 20min after Δ, % of control” value in series [2] (setting [4]) was 4.8%. Besides, in series [2] (20 min after treatment (recovery), listed as Rac-Bambuterol), the “HR, 20min after Δ, % of Control” value worked out at 9.5%. Also, the “HR, 20min after Δ, % of Control” value in series [2] (20 min after treatment (recovery), listed as racemic bambuterol hydrochloride) was 9.5%. Besides, in series [2] (at maximum response), the “HR, Treatment Δ, % of Control” value was 20.6% and the “MBP, Treatment Δ, % of control” value was found to be 31.6%. The “Maxdp/dt, Treatment Δ, % of control” value in series [2] (at maximum response, listed as Rac-Bambuterol) stood at 24.4%. For the same molecule, the “Maxdp/dt, Treatment Δ, % of control” value in series [2] (at maximum response, listed as racemic bambuterol) amounted to 24.4%. In series [2] (setting [5]), the “HR, Treatment Δ” value is listed as 85.8±5 Beat/min; the “MBP, Treatment Δ” value is 4.2±0.5 Kpa; the “Maxdp/dt, Treatment Δ” value came out at 65.4±9 Kpa/sec. In series [3], this molecule yielded a CHO lipid levels of 125.2 ± 19.8 mg/dL, an HDL lipid levels of 50 ± 17 mg/dL, an LDL lipid levels of 30 ± 6 mg/dL and a TG lipid levels of 148 ± 45 mg/dL. In addition, the VLDL lipid levels in series [3] is 44.2 ± 14.4 mg/dL.
